Results published in US20240092728A1, “HYDROXY-SUBSTITUTED SPHINGOLIPIDS” (Evonik Operations GmbH, priority 2021, published 2024).

What was measured:
sun-stressed skin [1] = experiment: In-vivo study: skin colour measurement (L*, ITA°) on outside of forearm; set-up: species or system human; conditions: formulation applied twice daily to forearm; for ΔITA° W2 − W0 / ΔL* W2 − W0: after 2 weeks; for ΔITA° W4 − W0 / ΔL* W4 − W0: after 4 weeks; for ΔITA° W8 − W0 / ΔL* W8 − W0: after 8 weeks
Protocol: (§1) For the in-vivo study, 24 test subjects (male and female) with sun-stressed skin were recruited. In order to ensure sun-stressed skin, this study was carried out in the period from September to November. […] The test subjects received either two different test formulations, which they applied to one forearm each, or one test formulation. which was applied to one forearm with the second forearm remaining untreated (control). The test formulations were a vehicle and a formulation containing 0.1% of hydroxybutyroyl phytosphingosine (hydroxybutyroyl PS). The various test combinations were assigned to the test subjects randomly. The test subjects applied the test formulations for a period of 8 weeks twice daily to the inside and outside of in each case one forearm. The following measurements on the forearms were carried out before the start of application and after two, four and eight weeks: • 1. Colour measurement: A colorimeter probe (Skin-Colorimeter CL 400, Courage & Khazaka, Cologne) was used to measure the parameters L* and ITA° on the outside of the forearm. L* describes the black/white value of the skin, ITA° describes the skin tone. When skin becomes lighter, both values show an increase. • 2. Skin roughness: This parameter was determined by means of a special camera on the inside of the forearm (Visioscan VC 98, Courage & Khazaka). This camera records a digital black-and-white image of the skin. The grayscale distribution of the image can be used to determine the skin roughness. • 3. Density of the dermis: The density of the dermis was determined by ultrasound on the outside of the forearm (SkinLab Combo, Cortex Technologies, Denmark). For this, a special probe transmits an ultrasound signal to the skin and records the reflection. This reflection can be used to determine a value for the skin density. A reduced skin density is shown in particular by areas of skin that have been very strongly exposed to sunlight.

sun-stressed skin [2] = experiment: In-vivo study: skin roughness on inside of forearm (Visioscan VC 98); set-up: species or system human; unit not given here; conditions: formulation applied twice daily to forearm; for Decrease in roughness W2 − W0: after 2 weeks; for Decrease in roughness W4 − W0: after 4 weeks; for Decrease in roughness W8 − W0: after 8 weeks
Protocol: as §1

sun-stressed skin [3] = experiment: In-vivo study: density of the dermis by ultrasound on outside of forearm; set-up: species or system human; unit not given here; conditions: formulation applied twice daily to forearm; for Δ skin density W2 − W0: after 2 weeks; for Δ skin density W4 − W0: after 4 weeks; for Δ skin density W8 − W0: after 8 weeks
Protocol: as §1

[4] = tested on: normal human epidermal keratinocytes (NHEK); experiment: ROS production after UV irradiation (2,7-DCDHF-DA fluorescence); assay type: cell-based
Protocol: (§2) The extent to which the substances of the invention are able to exert a protective effect on normal human epidermal keratinocytes (NHEK) exposed to UV irradiation was examined.
(§3) For this, corresponding investigations were carried out of biomarkers for reactive oxygen species (ROS), quantified with 2,7-dichlorodihydrofluorescein diacetate, and DNA damage and repair, quantified by the Comet assay.
The intracellular formation of reactive […] species (ROS) is inter alia a factor that leads to damage of cellular DNA by UV radiation.
96-well plates were seeded with keratinocytes, which were cultured for 24 hours in culture medium and then for a further 24 hours in assay medium. The medium was then replaced by a test medium containing the test compounds or the references (100 μM vitamin E and 10 μM EGCG) or in which they were absent (irradiated control) and the cells were preincubated for 24 hours. After preincubation, the medium was removed and replaced by assay medium, the fluorescent probe (2,7-dichlorodihydrofluorescein diacetate (10 μM 2,7-DCDHF-DA in assay medium) was added and the cells were incubated at 37° C. for 30 minutes. The cells were then washed with PBS solution and irradiated with 100 mJ/cm^2 UVB+UVA (+0.7 J/cm^2) without compounds or references. The lamp used was a SOL500 solar simulator with H2 filter (Dr. Honle, AG). After irradiation, the cells were incubated for 30 minutes. An unirradiated control and the conditions without sample (background noise) were carried out in parallel.
All experimental conditions were carried out in triplicate.
The emitted intensity of fluorescence (ex=485 nm, em=538 nm) was measured using an EnVision® (Perkin Elmer) microplate reader.
The intensity of fluorescence of the metabolized sample (DCF) was proportional to the formation of ROS. ROS production was therefore expressed as the relative intensity of fluorescence.

[5] = tested on: normal human epidermal keratinocytes (NHEK); experiment: DNA damage and repair after UV irradiation (Comet assay); assay type: cell-based
Protocol: as §2, §3
6-well plates were seeded with the keratinocytes, which were incubated for 48 hours in culture medium, with the medium replenished after 24 hours. The medium was then replaced by culture medium containing the test compounds or the references (0.3 mM control) or in which they were absent (control) and the cells were incubated for 24 hours. After the preincubation, the culture medium was removed and assay medium again added and the cells were irradiated with 250 mJ/cm^2 UVB+UVA (+1.6 J/cm^2) in the absence of the compounds. The lamp used was a SOL500 solar simulator (Dr. Hönle, AG) fitted with an H2 filter. An unirradiated control condition was carried out in parallel. All experimental conditions were carried out in duplicate.
At the end of the irradiation, the culture supernatants were discarded and the cells were washed with phosphate-buffered saline (PBS) prior to analysis.
The cells were trypsinized and counted and the supernatant was removed after centrifugation. The cells were then washed with PBS solution and suspended in the same PBS solution so as to achieve a cell concentration of 1×10^5 cells/ml. The cell suspension was then mixed with molten (37° C.) 1% agarose gel of low melting point and pipetted onto the Comet microscope slides (duplicate analysis for each condition). For cell lysis, the microscope slides were immersed in a freshly prepared alkaline solution (200 mM NaOH containing 1 mM EDTA, pH>13) on an electrophoresis support. The gel electrophoresis was carried out at 21 volts for 30 minutes. The Comet microscope slides were washed twice with water, each time for 5 minutes, then washed with 70% ethanol for 5 minutes and air-dried at 37° C. for 15 minutes.
After the electrophoresis, each dried sample was stained with a DNA intercalating fluorescent dye (SYBR Green solution). The cells were then observed in epifluorescence using an automated IN Cell Analyzer™ 2200 microscope image analyser (GE Healthcare) (X10 objective lens). On excitation (ex 494 nm, em 524 nm), the DNA-bound SYBR® Green emits green light. […] If DNA damage has occurred, the alkali treatment causes the DNA to […], releasing fragments that migrate outside the cell when exposed to an electric field. The negatively charged DNA migrates to the anode, the extrusion length being proportional to the relaxation of the supercoiled structure, which is an indicator of damage. When alkaline electrophoresis conditions are employed, the distribution of the DNA between the tail and comet head can be used to determine the extent of the DNA damage. The images of the cells were analysed with OpenComet in conjunction with ImageJ software. In each replicate of the analysis, a minimum value of 500 events was analysed.

[6] = 5 μM, 24 h preincubation, 100 mJ/cm^2 UVB+UVA
[7] = 10 μM, 24 h preincubation, 100 mJ/cm^2 UVB+UVA
[8] = 10 μM, 24 h preincubation, 250 mJ/cm^2 UVB+UVA

Compound	ΔITA° W2 − W0 (sun-stressed skin [1])	ΔL* W2 − W0 (sun-stressed skin [1])	ΔITA° W4 − W0 (sun-stressed skin [1])	ΔL* W4 − W0 (sun-stressed skin [1])	ΔITA° W8 − W0 (sun-stressed skin [1])	ΔL* W8 − W0 (sun-stressed skin [1])	Decrease in roughness W2 − W0 (sun-stressed skin [2])	Decrease in roughness W4 − W0 (sun-stressed skin [2])	Decrease in roughness W8 − W0 (sun-stressed skin [2])	Δ skin density W2 − W0 (sun-stressed skin [3])	Δ skin density W4 − W0 (sun-stressed skin [3])	Δ skin density W8 − W0 (sun-stressed skin [3])	protective effect against the formation of ROS [4, 6] [%]	protective effect against DNA damage after UV irradiation ([5]; 5 μM, 24 h preincubation, 250 mJ/cm^2 UVB+UVA) [%]	protective effect against the formation of ROS [4, 7] [%]	protective effect against DNA damage after UV irradiation [5, 8] [%]	protective effect against DNA damage after UV irradiation ([5]; 2 μM, 24 h preincubation, 250 mJ/cm^2 UVB+UVA) [%]	protective effect against DNA damage after UV irradiation ([5]; reference 0.3 mM, 250 mJ/cm^2 UVB+UVA)	protective effect against the formation of ROS ([4]; concentration not stated (FIG. 1; with increasing concentration))	protective effect against DNA damage after UV irradiation ([5]; concentration not stated (FIG. 2))
6-Hydroxyhexanoyl phytosphingosine [Ex 1b]	5.11	1.38	7.53	2.51	12.24	4.38	−6.20	−14.36	−15.88	3.33	4.24	4.63								
CCCCCCCCCCCCCCC[C@@H](O)[C@H](CO)NC(=O)C(O)C(C)(C)CO (some centres unmarked) [Ex 5b, 2-hydroxy-3,3-dimethyl-hydroxybutyroyl sphinganine]	3.54	0.92	6.21	2.02	10.52	3.28	−3.2	−12.34	−13.63	2.23	3.25	3.64	22	24						
Ceramide 3 [Cer 3]	2.34	0.60	5.21	1.82	8.79	2.61	0.05	−5.12	−4.66	1.20	1.50	1.80			4	12				
CCCCCCCCCCCCCCC(O)C(O)C(CO)NC(=O)C(O)C(C)(C)CO (centres unmarked) [Example 5, 2-hydroxy-3,3-dimethyl-hydroxybutyroyl phytosphingosine]													38				39			
3-Hydroxypropioyl phytosphingosine [Ex 1c]	2.41	0.58	4.89	1.92	8.67	2.55	−1.20	−5.55	−6.21	.82	0.98	0.82			5	13				
O=S(=O)(O)c1cc(O)c(O)c(S(=O)(=O)O)c1 [tiron]																		approximately 60%		
CCCCCCCCCCCCCC[C@@H](O)[C@@H](O)[C@@H](N)CO [phytosphingosine]																			No significant protective effect	cannot be demonstrated
